We go through two substances from patent publication US9238715B2, “Polymerizable composition for ophthalmic and medical use and antimicrobial composition obtained by polymerizing the polymerizable composition” (NANYANG TECHNOLOGICAL UNIVERSITY, priority 2010, dated 2016).

Holding throughout (experiment): MIC by microtiter dilution in Mueller Hinton Broth
Holding throughout (settings): 5×10^5 CFU/ml, 37° C., 18 hours, A600

One experiment concerns E. Coli. In kind it is cell-based, Escherichia coli. How it is done:
(§1) Minimal inhibitory concentrations (MIC) were determined by a standard microtiter dilution method in Mueller Hinton Broth (MHB) medium. Bacteria cells were grown overnight at 37° C. in MHB medium and diluted to a bacteria concentration of 10^6 colony forming units (CFU)/ml. The bacteria concentration was adjusted to 5×10^5 CFU/ml by adding 100 μl of a suspension of the bacteria cultured under the above conditions to 100 μl of a polylysine aqueous solution diluted to 10^3 to 1 μg/ml, and samples were prepared. The samples were incubated at 37° C. for 18 hours, and the MICs (lowest polylysine concentration that inhibited cell growth) after 18 hours were determined.

For the next experiment, the system named is P. aeruginosa. In kind it is cell-based, Pseudomonas aeruginosa. The procedure: as §1
For a further experiment, the system named is S. marcescence. In kind it is cell-based, Serratia marcescens. How it is done:
as §1

In a further experiment the test system is C. albicans. In kind it is cell-based, Candida albicans. The procedure: as §1
The subject of another experiment is F. solani. Format: cell-based, Fusarium solani. The procedure:
as §1

The next experiment has as its system S. aureus. Format: cell-based, Staphylococcus aureus. How it is done: as §1

Turning to “methacrylated epsilon-polylysine [MA-EPL]”, the MIC in the experiment with E. Coli came out at 7.8 µg/mL; in the experiment on P. aeruginosa, 7.8 µg/mL; with S. marcescence, 15.6 µg/mL; in the experiment on C. albicans, 27 µg/mL; against F. solani, 54 µg/mL.
For the substance epsilon-polylysine [EPL], the minimal inhibitory concentration (MIC) in the experiment with E. Coli stood at 7.8 µg/mL; in the experiment on P. aeruginosa it was 7.8 µg/mL; in the experiment on S. aureus it was 7.8 µg/mL; in the experiment on S. marcescence it was 15.6 µg/mL; in the experiment on C. albicans it was 54 µg/mL; against F. solani it was 109 µg/mL.
